Experimental data: patent publication US20240352145A1, “EFFICACY OF ANTI-TROP-2-SN-38 ANTIBODY DRUG CONJUGATES FOR THERAPY OF TUMORS RELAPSED/REFRACTORY TO CHECKPOINT INHIBITORS” (Immunomedics, Inc., priority 2016, published 2024)
Where “and” joins values, the source holds several entries; their conditions need not be identical. Identical values can stand only once.

How the values were obtained:
Capan-1 tumors = assay: Capan-1 xenograft therapy; assay type: in vivo, mouse; settings: 0.2 mg/kg SN-38 twice weekly x 4 weeks
Protocol: NCr female athymic nude (nu/nu) mice, 4 to 8 weeks old, and male Swiss-Webster mice, 10 weeks old, were purchased from Taconic Farms. Tolerability studies were performed in Cynomolgus monkeys (Macaca fascicularis; 2.5-4 kg male and female) by SNBL USA, Ltd. Animals were implanted subcutaneously with different human cancer cell lines. Tumor volume (TV) was determined by measurements in 2 dimensions using calipers, with volumes defined as: L×w^2/2, where L is the longest dimension of the tumor and w is the shortest. […] This dosing frequency reflected a consideration of the conjugate's serum half-life […], to allow a more continuous exposure to the ADC.
Statistics—Growth curves are shown as percent change in initial TV over time. Statistical analysis of tumor growth was based on area under the curve (AUC). Profiles of individual tumor growth were obtained through linear-curve modeling. An f-test was employed to determine equality of variance between groups before statistical analysis of growth curves. A 2-tailed t-test was used to assess statistical significance between the various treatment groups and controls, except for the saline control, where a 1-tailed t-test was used (significance at P≤0.05). Statistical comparisons of AUC were performed only up to the time that the first animal within a group was euthanized due to progression.

Capan-1 = assay: Cytotoxicity (MTS), Example 6, Capan-1; assay type: cell-based, human; settings: Capan-1, 96 h
Protocol: (§1) One day prior to adding the ADCs, cells were harvested from tissue culture and plated into 96-well plates. […] Plates were incubated at 37° C. for 96 h. […] Growth inhibition was measured as a percent of growth relative to untreated cells using Microsoft Excel and Prism software (non-linear regression to generate sigmoidal dose response curves which yield IC50-values.

BxPC-3 = assay: Cytotoxicity (MTS), Example 6, BxPC-3; assay type: cell-based, human; settings: BxPC-3, 96 h
Protocol: as §1

[1] = test system: metastatic epithelial tumors; assay: Phase I trial of sacituzumab govitecan (25 patients); assay type: in vivo, human
Protocol: The trial was designed as a standard 3+3 Phase I design, starting at a dose of 8 mg/kg per injection, with dosages given weekly for 2 weeks in a 3-week treatment cycle.
Prior to the start of each infusion, most patients received acetaminophen, anti-histamines (H1 and H2 blockers), and dexamethasone. Prophylactic use of antiemetics or anti-diarrheal medications was prohibited. Therapy consisted of 2 consecutive doses given on days 1 and 8 of a 3-week treatment cycle, with the intent to allow patients to continue treatment for up to 8 cycles (i.e., 16 treatments) unless there was unacceptable toxicity or progression. Patients showing disease stabilization or response after 8 cycles could continue treatments.
The maximum tolerated dose (MTD) was judged on the patient's tolerance to the first treatment cycle.

PARP = assay: Immunoblotting, apoptosis signaling, NCI-N87 and BxPC-3; assay type: cell-based, human; settings: evident at 24 h, increased at 48 h
Protocol: Immunoblotting—Cells (2×10^6) were plated in 6-well plates overnight. […] Parental hRS7 was used as a control for the ADC. Cells were lysed in buffer containing 10 mM Tris, pH 7.4, 150 mM NaCl, protease inhibitors and phosphatase inhibitors (2 mM […], 10 mM NaF). A total of 20 μg protein was resolved in a 4-20% SDS polyacrylamide gel, transferred onto a nitrocellulose membrane and blocked by 5% non-fat milk in 1×TBS-T (Tris-buffered saline, 0.1% Tween-20) for 1 h at room temperature. Membranes were probed overnight at 4° C. with primary antibodies followed by 1-h incubation with antirabbit secondary antibody (1:2500) at room temperature. Signal detection was done using a chemiluminescence kit (Supersignal West Dura, Thermo Scientific; Rockford, IL) with the membranes visualized on a Kodak Image Station […]. Primary antibodies p21Waf1/Cip1 (Cat. No. 2947), Caspase-3 (Cat. No. 9665), Caspase-7 (Cat. No. 9492), Caspase-9 (Cat. No. 9502), PARP (Cat. No. 9542), 3-actin (Cat. No. 4967), pJNK1/2 (Cat. No. 4668), JNK (Cat. No. 9258), and goat anti-rabbit-HRP secondary antibody (Cat. No. 7074) were obtained from Cell Signal Technology (Danvers, MA).

[2] = Cardillo et al., 2011; cited from earlier work
[3] = update of on-going trial, 17 TNBC patients

In the case of IMMU-132, the “tumor growth vs untreated and hA20-CL2A-SN-38” value (Capan-1 tumors) is reported as “significantly inhibited tumor growth”, the “tumor-free mice at end of study” value (Capan-1 tumors; day 140) is reported as 50% and the IC50 (Capan-1) is reported as 3.5 nM. For the same substance, the IC50 (BxPC-3) was 2.6 nM, the “Delay/adjustment 1st cycle, patients” value ([1]; 8 mg/kg, 7 patients treated) was 1 and the “Dose-limiting toxicity 1st cycle, patients” value ([1]; 8 mg/kg, 7 patients treated) was 0. The “patients with grade-3 diarrhea” value ([1]; 10 mg/kg dose level) was 1, the “Delay/adjustment 1st cycle, patients” value ([1]; 10 mg/kg, 6 patients treated) was 0 and the “Dose-limiting toxicity 1st cycle, patients” value ([1]; 10 mg/kg, 6 patients treated) was 0. For the same substance, the “Delay/adjustment 1st cycle, patients” value ([1]; 12 mg/kg, 9 patients treated) was 5, the “Dose-limiting toxicity 1st cycle, patients” value ([1]; 12 mg/kg, 9 patients treated, listed as sacituzumab govitecan) was 0/9 and 0 and the “Delay/adjustment 1st cycle, patients” value ([1]; 18 mg/kg, 3 patients treated) was 2. The “median time to progression” value ([1]; 24 patients) was 3.6 months, the “time to progression, range” value ([1]; 24 patients) was 1-12.8 months and the “febrile neutropenia, patients” value ([1]; 25 patients) was 2. For the same substance, the “long-term survival (15-20 months)” value ([1]; 25 patients) was roughly 25%, the “patients with >30% reduction of target lesions” value ([1]; 25 patients) was 12% and the “patients with SD” value ([1]; 25 patients) was 60%. For the same substance, the “free SN-38 as share of total SN-38, average” value ([1]; 28 30-min serum samples from 7 patients, HPLC) was 2.91±0.91%, the infusion-related adverse events ([1]; 297 infusions over 2-3 h) was “no infusion-related adverse events” and the “adverse event possibly related to treatment” value ([1]; GC patient #9, 1 dose of 10 mg/kg) was “grade 3 febrile neutropenia”. For the same substance, the “progressed (PD) as best response, patients” value ([1]; RECIST 1.1) was 7, the “partial responses, patients” value ([1]; RECIST 1.1, 25 patients) was 3 and the “stable disease as best response, patients” value ([1]; RECIST 1.1, 25 patients, listed as Sacituzumab govitecan) was 15. The “stable disease as best response, patients” value ([1]; RECIST 1.1, 25 patients, listed as sacituzumab govitecan) was “Fifteen”, the tumor shrinkage ([1]; SCLC patient who failed prior topoisomerase I inhibitor therapy) was 38% and the “median time to progression” value ([1]; advanced pancreatic ductal cancer, N=7) was 2.9 months. For the same substance, the tumor shrinkage ([1]; colon cancer patient who failed prior topoisomerase I inhibitor therapy) was 13%, the “intact conjugate in trough serum samples” value ([1]; drawn immediately before next dose) was “no sacituzumab govitecan could be detected” and the “antibody response to hRS7 IgG or SN-38” value ([1]; multiple cycles for up to 12 months) was “no antibody response to the hRS7 IgG or SN-38 was detected”. For the same substance, the “reduction in target lesions” value ([1]; patient 10, CRC, 5 doses of 10 mg/kg) was 23%, the “maximum reduction in target lesions” value ([1]; patient 10, CRC, after 18 doses) was 28% and the “plasma CEA” value ([1]; patient 10, CRC, baseline 38.5 ng/mL) was 1.6 ng/mL. The time to progression ([1]; patient 18, TNBC) was 45 weeks, the “reduction in target lesions” value ([1]; patient 18, TNBC, after 3 doses) was 13% and the “reduction in target lesions” value ([1]; patient 18, TNBC, after 16 doses) was 19%. For the same substance, the period until progression ([1]; patient 20, HRPC, 34 treatments) was 12.7 months, the “period of SD” value ([1]; patient 25, esophageal cancer, 18 then 13.5 mg/kg) was 30 weeks and the “period of disease stabilization” value ([1]; patient #11, PDC) was 15 weeks. For the same substance, the CA19-9 serum titer ([1]; patient #11, PDC, 10 mg/kg, after 8 doses, baseline 5880) was 2840 units/mL, the “SN-38 bound to the IgG” value ([1]; patient #25, 13.5 mg/kg) was 96.8% and the “free SN-38, average” value ([1]; patient #25, 13.5 mg/kg) was 105.4 ± 47.7 ng/mL. For the same substance, the “free SN-38G as share of total SN-38+SN-38G” value ([1]; patient #25, 13.5 mg/kg) was 11.6%, the “free SN-38G, average” value ([1]; patient #25, 13.5 mg/kg) was 13.9 ± 4.1 ng/mL and the “total SN-38, average” value ([1]; patient #25, 13.5 mg/kg, 11 peak acid-hydrolyzed samples) was 3309.8 ± 601.8 ng/mL. For the same substance, the “Free SN-38G” value ([1]; patient #25, 18 mg/kg) was 26.2 ng/mL, the “free SN-38 (non-hydrolyzed sample)” value ([1]; patient #25, 18 mg/kg) was 155.2 ng/mL and the “free SN-38G as share of total unbound SN-38+SN-38G” value ([1]; patient #25, 18 mg/kg) was 14.4%. The “free SN-38 as share of total” value ([1]; patient #25, 18 mg/kg) was 3.0%, the “total SN-38 (acid-hydrolyzed sample)” value ([1]; patient #25, 18 mg/kg) was 5,089 ng/mL and the “SN-38G as share of free SN-38 levels in serum” value ([1]; patients) was 20-40%. The “median time to progression” value ([1]; patients with SD or PR (N=18)) was 4.1 months, the “time to progression, range” value ([1]; patients with SD or PR (N=18)) was 2.6-12.8 months and the “patients with response or disease stabilization” value ([1]; patients with prior topoisomerase I inhibitor) was 7 of 9. For the same substance, the “SN-38 in serum bound to IgG” value ([1]; peak samples, 30 min after infusion) was greater than 96%, the “time to progression from onset of therapy” value (shortened to “time … of therapy”) ([1]; responder with SCLC) was 2.9 months and the “time … of therapy” value ([1]; responder with TNBC) was 4.3 months. For the same substance, the “time … of therapy” value ([1]; responder with colon cancer) was 7.1 months, the “reduction of target lesions” value ([1]; two of nine patients with prior topoisomerase-I inhibitor therapy, listed as sacituzumab govitecan) was 28% and 38% and the “clinical benefit rate (PR+SD≥6 months)” value [1, 3] was 46%. For the same substance, the “overall response rate (PR)” value [1, 3] was 29%, the PARP cleavage (PARP) was “mediated PARP cleavage” and the “patients with long-term stable disease” value (metastatic PDC; 8/13 PDC patients) was 62%. The “median TTP, CT assessable patients” value (metastatic PDC; 8.0 weeks estimated from last prior therapy) was 12.7 wks, the “stable disease, number of patients” value (metastatic PDC; 13 assessable patients) was 8 and the response (metastatic PDC; case) was “stable disease by CT RECIST criteria”. The CA19-9 after treatment (metastatic PDC; case, from 15885 U/mL) was 4418 U/mL, the “Alopecia (Grades 1-2), patients” value (metastatic PDC; in vivo) was 5 of 9 and the “Grade 3-4 nausea or vomiting” value (metastatic PDC; in vivo) was “no patient”. For the same substance, the “Phase 2 dose” value (metastatic PDC; in vivo) was 8 to 10 mg/kg, the “median TTP, all 14 patients” value (metastatic PDC; in vivo) was 11.9 wks and the “neutropenia ≥G3” value (metastatic PDC; in vivo) was 33%. The “patients with Grade 3 diarrhea” value (metastatic PDC; in vivo) was “Two”, the “progressive disease by RECIST, patients” value (metastatic PDC; in vivo) was “Five” and the “maximum decline in CA19-9” value (metastatic PDC; person, 8 mg/kg days 1 and 8 of 21 day cycle) was 72%. For the same substance, the “very well tolerated human equivalent dose” value [2] was roughly 40 mg/kg.
